According to ChEMBL document CHEMBL1151626, “Diphenylamine, an antihyperglycemic agent from onion and tea” (1984):

Tests used:
Assay type in all cases: functional
Design in all cases: scale not given: the % may be the effect or the level left
Oryctolagus cuniculus [1] = experiment: Hypoglycemic activity in fasting rabbit assessed as reduction of plasma glucose at 10 mg/kg, po
Oryctolagus cuniculus [2] = experiment: Hypoglycemic activity in glucose-fed rabbit assessed as reduction of plasma glucose at 10 mg/kg, po after 0.5 hr
Oryctolagus cuniculus [3] = experiment: Hypoglycemic activity in glucose-fed rabbit assessed as reduction of plasma glucose at 10 mg/kg, po after 1 hr
Oryctolagus cuniculus [4] = experiment: Hypoglycemic activity in glucose-fed rabbit assessed as reduction of plasma glucose at 10 mg/kg, po after 1.5 hrs
Oryctolagus cuniculus [5] = experiment: Hypoglycemic activity in glucose-fed rabbit assessed as reduction of plasma glucose at 10 mg/kg, po after 2 hrs
Oryctolagus cuniculus [6] = experiment: Hypoglycemic activity in glucose-fed rabbit assessed as reduction of plasma glucose at 10 mg/kg, po after 2.5 hrs
Oryctolagus cuniculus [7] = experiment: Hypoglycemic activity in rabbit assessed as reduction of plasma glucose at 10 mg/kg, po after 2 hrs
Oryctolagus cuniculus [8] = experiment: Hypoglycemic activity in fasting rabbit assessed as reduction of plasma glucose at 50 mg/kg, po
Oryctolagus cuniculus [9] = experiment: Hypoglycemic activity in glucose-fed rabbit assessed as reduction of plasma glucose at 50 mg/kg, po after 0.5 hr
Oryctolagus cuniculus [10] = experiment: Hypoglycemic activity in glucose-fed rabbit assessed as reduction of plasma glucose at 50 mg/kg, po after 1 hr
Oryctolagus cuniculus [11] = experiment: Hypoglycemic activity in glucose-fed rabbit assessed as reduction of plasma glucose at 50 mg/kg, po after 1.5 hrs
Oryctolagus cuniculus [12] = experiment: Hypoglycemic activity in glucose-fed rabbit assessed as reduction of plasma glucose at 50 mg/kg, po after 2 hrs
Oryctolagus cuniculus [13] = experiment: Hypoglycemic activity in glucose-fed rabbit assessed as reduction of plasma glucose at 50 mg/kg, po after 2.5 hrs
Oryctolagus cuniculus [14] = experiment: Hypoglycemic activity in rabbit assessed as reduction of plasma glucose at 50 mg/kg, po after 2 hrs

| SMILES | Activity (Oryctolagus cuniculus [1]) [mg%] | Activity (Oryctolagus cuniculus [2]) [mg%] | Activity (Oryctolagus cuniculus [3]) [mg%] | Activity (Oryctolagus cuniculus [4]) [mg%] | Activity (Oryctolagus cuniculus [5]) [mg%] | Activity (Oryctolagus cuniculus [6]) [mg%] | Activity (Oryctolagus cuniculus [7]) [%] | Activity (Oryctolagus cuniculus [8]) [mg%] | Activity (Oryctolagus cuniculus [9]) [mg%] | Activity (Oryctolagus cuniculus [10]) [mg%] | Activity (Oryctolagus cuniculus [11]) [mg%] | Activity (Oryctolagus cuniculus [12]) [mg%] | Activity (Oryctolagus cuniculus [13]) [mg%] | Activity (Oryctolagus cuniculus [14]) [%] |
| --- | --- | --- | --- | --- | --- | --- | --- | --- | --- | --- | --- | --- | --- | --- |
| c1ccc(Nc2ccccc2)cc1 [DIPHENYLAMINE] | 102.2 | 140.2 | 154.6 | 80.2 | 71.8 | 77.2 | 61.4 | – | – | – | – | – | – | – |
| CCCCNC(=O)NS(=O)(=O)c1ccc(C)cc1 [TOLBUTAMIDE] | – | – | – | – | – | – | – | 104.2 | 129 | 154.3 | 125.2 | 104 | 95.1 | 44.1 |
